Measured values published in patent US20140221282A1, “LONG DURATION DUAL HORMONE CONJUGATES” (priority 2011, published 2014).
Ends that are not written are not given here. Y‑shaped‑mPEG40KD = Y-shaped methoxy-PEG of 40 kDa attached to the Lys side chain; mPEG40KD = methoxy-PEG of 40 kDa

Tests used:
amylin receptor = test: Amylin receptor binding assay, rat nucleus accumbens membranes; conditions: 125I-rat amylin displacement
Source text: Dried glass fiber plates were combined with scintillant and counted on a multi-well Perkin Elmer scintillation counter, as well known in the art.

[1] = Body weight change in lean rats; assay type: in vivo; conditions: for body weight reduction: SC 125 nmol/kg (FIG. 17)
Description: Lean rats were administered a subcutaneous (SC) once weekly injection of test compound (125 nmol/kg) or vehicle. FIGS. 13A-13B provide the result of a multi-day food intake assays. The effect on 24-hour food intake was investigated for Cmpds 69, 73, 72, 70, and 74, using vehicle as control. […] In the case of some of the compounds, weight loss was still evident even after one week.
The effect on 24-hour food intake, as judged with SC injection (125 nmol/kg), was investigated for Cmpds 74, 76, 77 and 78.
Test animals (lean rats) were injected SC at 125 nmol/kg, and body weight corrected for vehicle (FIG. 19A) and cumulative food intake (FIG. 19B) were determined for 7-days. As shown in FIGS. 19A-19B, most compounds in the tested series provided weight loss which was still evident after 7-days.

Food intake in lean rats = assay type: in vivo; conditions: for food intake: SC once weekly injection 125 nmol/kg
Description: A variety of food intake assays are available to one of skill in the art. For example, in the so-called “home cage model” of food intake, subjects (e.g., rats) are maintained in their home cage, and food intake along with total weight of the subject is measured following injection of test compound. In the so-called “feeding patterns model” of food intake assay, subjects (e.g., rats) are habituated to a feeding chamber and to injections prior to testing. After test compound administration, the subjects are immediately placed into the feeding chamber, and food intake is automatically determined as a function of time (e.g., 1-min intervals). For both tests, the food is standard chow or any of a variety of chows (e.g., high fat) known in the art. In the so-called “mouse food intake” assay, a test compound may be tested for appetite suppression, or for an effect on body weight gain in diet-induced obesity (DIO) mice. In a typical mouse food intake assay, female NIH/Swiss mice (8-24 weeks old) are group housed with a 12:12 hour light:dark cycle with lights on at 0600. Water and a standard pelleted mouse chow diet are available ad libitum, except as noted. Animals are fasted starting at approximately 1500 hrs, I day prior to experiment. The morning of the experiment, animals are divided into experimental groups. In a typical study, n=4 cages with 3 mice/cage. At time=0 min, all animals are given an intraperitoneal injection of vehicle or compound, typically in an amount ranging from about 10 nmol/kg to 75 nmol/kg, and immediately given a pre-weighed amount (10-15 g) of the standard chow. Food is removed and weighed at various times, typically 30, 60, and 120 minutes, to determine the amount of food consumed. See e.g., Morley et al., 1994, Am. J. Physiol. 267:R178-R184). Food intake is calculated by subtracting the weight of the food remaining at the e.g. 30, 60, 120, 180 and/or 240 minute time point, from the weight of the food provided initially at time=0. Significant treatment effects are identified by ANOVA (p<0.05). Where a significant difference exists, test means are compared to the control mean using Dunnett's test (Prism v. 2.01, GraphPad Software Inc., San Diego, Calif.). For any test described herein, administration of test compound can be by any means, including injection (e.g., subcutaneous, intraperitoneal, and the like), oral, or other methods of administration known in the art.
FIGS. 13A-13B provide the result of a multi-day food intake assays. The effect on 24-hour food intake was investigated for Cmpds 69, 73, 72, 70, and 74, using vehicle as control. […] In the case of some of the compounds, weight loss was still evident even after one week. […]
As shown in FIGS. 19A-19B, most compounds in the tested series provided weight loss which was still evident after 7-days.

[2] = Body weight change in lean rats; assay type: in vivo; conditions: for body weight reduction: Cmpd 77 31.25-250 nmol/kg, Cmpd 79 250 nmol/kg (FIG. 18)
[3] = Body weight change in diet induced obese (DIO) rats; assay type: in vivo, DIO Sprague Dawley rats; conditions: SC once a week 125 nmol/kg, four weeks
Description: The effect of Cmpd 14 on body weight was examined in male outbred diet-induced obese Sprague Dawley rats. Percent vehicle-corrected change in body weight was measured relative to PEGylated parent peptides alone and in combination. […]
Specifically, in this experiment the duration of action on food intake and change in body weight was compared for compounds having a single active peptide element (Cmpd 6 and Cmpd 7) relative to the combined dosing of these compounds, and further relative to LDDHC Cmpd 14, having the active peptide elements of Cmpds 6-7 separated by a 40 kDa PEG water-soluble polymeric spacer. […] In the combination dosing, each of Cmpd 6 and Cmpd 7 was administered at 32 nmol/kg. The test subjects were DIO rats (n=6/group, body weight baseline=478 g). […]
Plasma drug levels were determined by ELISA assay.
[…] The baseline body weight was 505 gm.

[4] = SC once weekly injection 125 nmol/kg
[5] = Cmpd 77 31.25-250 nmol/kg, Cmpd 79 250 nmol/kg (FIG. 18)

Row | IC50 (amylin receptor) [nM] | Molecule | body weight [1, 4] | food intake (Food intake in lean rats) | further results
1 | 0.42 | CNTATCATQRLANFLVRSSNNLGPVLPPTNVGSNTY [Cmpd 50, [des-Lys^1]-Cmpd 49] | – | – | –
2 | – | [K^21(mPEG40KD)]-Cmpd 51 (KCNTATCATQRLANFLVRSSK(mPEG 40 kDa)NLGPVLPPTNVGSNTY-NH2; cysteine pairing not given here) [Cmpd 69] | efficacious | efficacious | –
3 | – | [K^21(mPEG40KD)]-Cmpd 52 (CNTATCATQRLANFLVRSSK(mPEG 40 kDa)NLGPVLPPTNVGSNTY-NH2; cysteine pairing not given here) [Cmpd 70] | efficacious | efficacious | –
4 | – | [K^21(mPEG40KD)]-Cmpd 59 (CNTATCATQRLANFLVHSSK(mPEG 40 kDa)NFGPILPPTNVGSNTY-NH2; cysteine pairing not given here) [Cmpd 76] | – | – | body weight reduction [1]: at least as efficacious as Cmpd 74; food intake reduction (Food intake in lean rats; SC 125 nmol/kg (FIG. 17)): at least as efficacious as Cmpd 74
5 | 470 | [K^26(Y-shaped-mPEG40KD)]-Cmpd 53 (KCNTATCATQRLANFLVRSSNNLGPK(Y‑shaped‑mPEG40KD)LPPTNVGSNTY-NH2; cysteine pairing not given here) [Cmpd 75] | – | – | body weight ([1]; single SC dose, y-branched vs linear PEG): not as efficacious as the linear pegylated version, Cmpd 71
6 | – | [K^26(Y-shaped-mPEG40KD)]-Cmpd 60 (CNTATCATQRLANFLVHSSNNFGPK(Y‑shaped‑mPEG40KD)LPPTNVGSNTY-NH2; cysteine pairing not given here) [Cmpd 79] | – | – | food intake reduction (Food intake in lean rats; [5]): not as efficacious as the linear pegylated version, Cmpd 77; body weight reduction [2]: not as efficacious as the linear pegylated version, Cmpd 77
7 | 66 | [K^26(mPEG40KD)]-Cmpd 53 (KCNTATCATQRLANFLVRSSNNLGPK(mPEG40KD)LPPTNVGSNTY-NH2; cysteine pairing not given here) [Cmpd 71] | – | – | food intake, dose response (Food intake in lean rats; 12-250 nmol/kg): reduced body weight and food intake in a dose dependent fashion; weight loss [3]: not as efficacious as infused Cmpd 49; body weight, dose response ([2]; 12-250 nmol/kg): reduced body weight and food intake in a dose dependent fashion
8 | – | [K^26(mPEG40KD)]-Cmpd 54 (CNTATCATQRLANFLVRSSNNLGPK(mPEG40KD)LPPTNVGSNTY-NH2; cysteine pairing not given here) [Cmpd 72] | efficacious | efficacious | –
9 | – | [K^26(mPEG40KD)]-Cmpd 60 (CNTATCATQRLANFLVHSSNNFGPK(mPEG40KD)LPPTNVGSNTY-NH2; cysteine pairing not given here) [Cmpd 77] | – | – | body weight reduction [1]: at least as efficacious as Cmpd 74; food intake reduction (Food intake in lean rats; [5]): dose dependent efficacy; food intake reduction (Food intake in lean rats; SC 125 nmol/kg (FIG. 17)): at least as efficacious as Cmpd 74; body weight reduction [2]: dose dependent efficacy
10 | – | [K^31(mPEG40KD)]-Cmpd 55 (KCNTATCATQRLANFLVRSSNNLGPVLPPTK(mPEG40KD)VGSNTY-NH2; cysteine pairing not given here) [Cmpd 73] | efficacious | efficacious | –
11 | – | [K^31(mPEG40KD)]-Cmpd 56 (CNTATCATQRLANFLVRSSNNLGPVLPPTK(mPEG40KD)VGSNTY-NH2; cysteine pairing not given here) [Cmpd 74] | efficacious | efficacious | –
12 | – | [K^31(mPEG40KD)]-Cmpd 61 (CNTATCATQRLANFLVHSSNNFGPILPPTK(mPEG40KD)VGSNTY-NH2; cysteine pairing not given here) [Cmpd 78] | – | – | body weight reduction [1]: at least as efficacious as Cmpd 74; food intake reduction (Food intake in lean rats; SC 125 nmol/kg (FIG. 17)): at least as efficacious as Cmpd 74
13 | 78 | mPEG40KD-Cmpd 50 (CNTATCATQRLANFLVRSSNNLGPVLPPTNVGSNTY-NH2; cysteine pairing not given here; also: mPEG40KD attached, site not given here) [Cmpd 68] | – | – | –

Row | Molecule | IC50 (amylin receptor) [nM] | body weight [1, 4] | food intake (Food intake in lean rats) | further results
14 | CC(C)C[C@H](NC(=O)[C@H](CC(N)=O)NC(=O)[C@H](CC(N)=O)NC(=O)[C@H](CO)NC(=O)[C@H](CO)NC(=O)[C@H](CCCNC(=N)N)NC(=O)[C@@H](NC(=O)[C@H](CC(C)C)NC(=O)[C@H](Cc1ccccc1)NC(=O)[C@H](CC(N)=O)NC(=O)[C@H](C)NC(=O)[C@H](CC(C)C)NC(=O)[C@H](CCCNC(=N)N)NC(=O)[C@H](CCC(N)=O)NC(=O)[C@@H](NC(=O)[C@H](C)NC(=O)[C@@H]1CSSC[C@H](NC(=O)[C@@H](N)CCCCN)C(=O)N[C@@H](CC(N)=O)C(=O)N[C@@H]([C@@H](C)O)C(=O)N[C@@H](C)C(=O)N[C@@H]([C@@H](C)O)C(=O)N1)[C@@H](C)O)C(C)C)C(=O)NCC(=O)N1CCC[C@H]1C(=O)N[C@H](C(=O)N[C@@H](CC(C)C)C(=O)N1CCC[C@H]1C(=O)N1CCC[C@H]1C(=O)N[C@H](C(=O)N[C@@H](CC(N)=O)C(=O)N[C@H](C(=O)NCC(=O)N[C@@H](CO)C(=O)N[C@@H](CC(N)=O)C(=O)N[C@H](C(=O)N[C@@H](Cc1ccc(O)cc1)C(N)=O)[C@@H](C)O)C(C)C)[C@@H](C)O)C(C)C [Cmpd 49, reference compound] | 0.1 | – | – | –
